Measurements taken from US7858635B2 (priority 2005, dated 2010).
Where two headings read alike, the source gives them in different places.

What was measured:
M1 muscarinic receptor = biological target: T1, M1 muscarinic receptor (Homo sapiens, UniProt P11229); assay: Functional mobilization of intracellular calcium (FLIPR, Fluo-3), M1-CHO cells; format: cell-based; settings: for Emax: 100% efficacy is the maximum response obtained with the Carbachol control, read-out: M1 Efficacy
T1 construct: expressed in transfected cells; host or cells: CHO cells (M1-CHO, under zeocin and G418 selection)
T1 sequence (P11229 1-460): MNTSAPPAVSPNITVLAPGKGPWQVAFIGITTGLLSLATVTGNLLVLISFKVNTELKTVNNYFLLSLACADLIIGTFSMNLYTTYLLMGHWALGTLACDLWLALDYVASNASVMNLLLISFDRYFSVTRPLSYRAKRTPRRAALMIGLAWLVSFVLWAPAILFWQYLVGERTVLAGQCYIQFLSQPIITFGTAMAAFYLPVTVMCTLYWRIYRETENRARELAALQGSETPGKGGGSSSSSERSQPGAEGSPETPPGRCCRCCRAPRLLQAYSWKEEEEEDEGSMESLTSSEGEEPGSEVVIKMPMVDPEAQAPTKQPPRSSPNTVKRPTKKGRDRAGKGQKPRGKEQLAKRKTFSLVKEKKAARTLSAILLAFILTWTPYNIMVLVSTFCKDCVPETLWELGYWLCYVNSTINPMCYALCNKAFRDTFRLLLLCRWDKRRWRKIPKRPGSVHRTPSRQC
Description: (§1) CHO cells expressing muscarinic receptors (M1 to M5) are grown as monolayers in tissue culture flasks at 37° C. in a humidified atmosphere containing 5% CO2 and passaged every 3-5 days. The growth media is Dulbecco's modified eagles medium (DMEM, Gibco Cat#12430-054), containing 25 mM Hepes and supplemented with Fetal Bovine Serum (Hyclone, cat# SH30071.03), 0.1 mM of MEM non-essential amino acids (GIBCO, Cat# 11140-050), 1 mM MEM Sodium Pyruvate (GIBCO Cat# 11360-070) and 100 units/ml of Penicillin G and 100 μg/ml of Streptomycin (GIBCO Cat# 15140-122). The recombinant muscarinic receptor cell lines are grown under antibiotic pressure with media containing 25 μm/ml zeocin and 500 μg/ml G418 (M1-CHO), 4 μg/ml puromycin, 50 μg/ml zeocin and 2.5 μm/ml blasticidin (M2 and M4-CHO) or 50 μg/ml zeocin and 4 μg/ml puromycin (M3 and M5-CHO).
(§2) Cells are harvested at 80-90% confluence using Versene (GIBCO Cat# 15040-066), collected by centrifugation and seeded 18-24 hrs prior to running the calcium assay at a density of 5,000-10,000 cells/well in […], clear-bottomed 384-well plates (BD Biocoat, poly-D-lysine, Cat#356663). The day of the experiment, the cells are washed with a plate washer (Bioteck Instruments, ELX 405) using bath1 buffer (140-mM NaCl, 4.5-mM KCL, 2-mM CaCl2, 1-mM MgCl2, 10-mM Hepes-Na, 10-mM Glucose, pH 7.4, with NaOH) containing 1 mM Probenecid. Next, the calcium dye Fluo-3 (25 μl/well of Fluo-3 μM at 4 μM, Molecular Probes F-1241, in Bath 1 buffer containing 1 mM Probenecid) is added to the 25 μl of Bath 1 remaining in each well after the plate wash and the dye is loaded at 37° C. in the tissue culture incubator for 60-90 min. The fluorescent dye is removed using the plate washer with Bath 1 containing 1 mM Probenecid, leaving 25 μl/well of this solution after the wash. Alternatively, cells can be loaded with the calcium indicator from Molecular Devices (Calcium 3 Assay Reagents, Cat # R7181) adding 5 μl of a 5× solution dye in Bath 1 containing 1 mM Probenecid (10 ml per dye flask cat# R7182 to generate a solution 20×) to 20 μl of the same buffer. After loading for 60 min, the experiment can be run without having to remove the dye.
(§3) Compounds are prepared at a 2× fold concentration in a 96-well plate (round bottom, Costar Corning cat# 3656), by reconstituting the pre-spotted compounds in bath 1 containing 1 mM probenecid. The final concentration DMSO is 0.5%, and the amount of DMSO is normalized across the assay plate. To determine an agonist action of the compounds on muscarinic receptors, the reconstituted compounds are added (25 μl compound/well) to the cell assay plate (containing 25 μl/well) using the multi-channel robotic system of the FLIPR 3 Instrument (Molecular Devices, Sunnyvale, Calif.). To determine a functional inhibitory action of the compounds on muscarinic receptors, the reconstituted compounds are added (25 μl compound/well) to the assay plate and pre-incubated for 15 min prior to adding 25 μl of Carbachol at 3× the EC80 for each muscarinic subtype. Alternatively, the compounds can be co-applied simultaneously with the agonist. In both assay modes, the fluorescence is recorded for 60 sec (excitation wavelength is […] and emission wavelength 540 nm) using the FLIPR 3 instrument.
(§4) The potency, efficacy and selectivity of the muscarinic compounds were evaluated by screening the compound activity across the whole family (M1 to M5 cells). Compounds were also screened for activity on other proteins such as other GPCRs and ion channels to determine selectivity on M4 receptors.

M4 muscarinic receptor = biological target: T2, M4 muscarinic receptor (Homo sapiens, UniProt P08173); assay: Functional mobilization of intracellular calcium (FLIPR, Fluo-3), M4-CHO cells; format: cell-based; settings: for Emax: 100% efficacy is the maximum response obtained with the Carbachol control, read-out: M4 Efficacy
T2 construct: expressed in transfected cells; host or cells: CHO cells (M4-CHO, under puromycin, zeocin and blasticidin selection)
T2 sequence (P08173 1-479): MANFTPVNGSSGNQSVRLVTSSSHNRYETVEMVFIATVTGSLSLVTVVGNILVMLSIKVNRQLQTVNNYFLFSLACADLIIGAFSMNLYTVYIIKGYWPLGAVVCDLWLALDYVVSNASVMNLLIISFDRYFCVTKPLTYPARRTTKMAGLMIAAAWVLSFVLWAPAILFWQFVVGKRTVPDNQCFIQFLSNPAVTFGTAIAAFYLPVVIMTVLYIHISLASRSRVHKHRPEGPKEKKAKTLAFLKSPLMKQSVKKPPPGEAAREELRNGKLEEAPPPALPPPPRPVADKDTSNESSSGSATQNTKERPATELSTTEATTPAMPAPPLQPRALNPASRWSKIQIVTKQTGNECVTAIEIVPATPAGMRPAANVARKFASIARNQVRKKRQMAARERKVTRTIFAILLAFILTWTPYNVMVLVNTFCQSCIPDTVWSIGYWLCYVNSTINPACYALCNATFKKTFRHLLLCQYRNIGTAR
Description: as §1, §2, §3, §4

[1] = compound nos. 1-454, M1-CHO cells, calcium mobilization
[2] = compound nos. 1-454, M4-CHO cells, calcium mobilization

CCOC(=O)N1C2CCC1CC(N1CCC3(CC1)CN(C(=O)Nc1ccc(F)cc1)c1ccc(F)cc13)C2 (stereo not drawn) [compound 197]
Emax (M1 muscarinic receptor; compound nos. 1-454): < 65% | M1 Activity (M1 muscarinic receptor; [1]): ++ (activity was measured to be between 0.7 μM and 3.0 μM) | Emax (M4 muscarinic receptor; compound nos. 1-454): < 55% | M4 Activity (M4 muscarinic receptor; [2]): + (activity was measured to be greater than or equal to 4.0 μM)

CC(=O)N1CC2(CCN(C3CC4CCC(C3)N4C(=O)OC(C)C)CC2)c2cc(F)ccc21 (stereo not drawn) [compound 94]
Emax (M1 muscarinic receptor; compound nos. 1-454): < 65% | M1 Activity (M1 muscarinic receptor; [1]): +++ (activity was measured to be less than or equal to 0.7 μM) | Emax (M4 muscarinic receptor; compound nos. 1-454): < 55% | M4 Activity (M4 muscarinic receptor; [2]): ++ (activity was measured to be between 0.1 μM and 4.0 μM)

CCOC(=O)N1C2CCC1CC(N1CCC3(CC1)CC(=O)Nc1ccccc13)C2 (stereo not drawn) [compound 56]
Emax (M1 muscarinic receptor; compound nos. 1-454): 65 to 85% | M1 Activity (M1 muscarinic receptor; [1]): +++ (activity was measured to be less than or equal to 0.7 μM) | Emax (M4 muscarinic receptor; compound nos. 1-454): 55 to 70% | M4 Activity (M4 muscarinic receptor; [2]): +++ (activity was measured to be less than or equal to 0.1 μM)

CN(C)C(=O)N1CC2(CCN(C3CC4CCC(C3)N4C(=O)O[C@@H]3CCOC3)CC2)c2cc(F)ccc21 (stereo partly drawn) [compound 188]
Emax (M1 muscarinic receptor; compound nos. 1-454): < 65% | M1 Activity (M1 muscarinic receptor; [1]): + (activity was measured to be greater than or equal to 3.0 μM) | Emax (M4 muscarinic receptor; compound nos. 1-454): 55 to 70% | M4 Activity (M4 muscarinic receptor; [2]): + (activity was measured to be greater than or equal to 4.0 μM)

CCOC(=O)N1CCC(CN2CCC3(CC2)CN(C(C)=O)c2ccc(OC(F)(F)F)cc23)CC1 [compound 21]
Emax (M1 muscarinic receptor; compound nos. 1-454): < 65% | M1 Activity (M1 muscarinic receptor; [1]): ++ (activity was measured to be between 0.7 μM and 3.0 μM) | Emax (M4 muscarinic receptor; compound nos. 1-454): < 55% | M4 Activity (M4 muscarinic receptor; [2]): + (activity was measured to be greater than or equal to 4.0 μM)

CCCOC(=O)N1C2CCC1CC(N1CCC3(CC1)CN(C(=O)O[C@@H]1CCOC1)c1ccc(F)cc13)C2 (stereo partly drawn) [compound 115]
Emax (M1 muscarinic receptor; compound nos. 1-454): 65 to 85% | M1 Activity (M1 muscarinic receptor; [1]): +++ (activity was measured to be less than or equal to 0.7 μM) | Emax (M4 muscarinic receptor; compound nos. 1-454): < 55% | M4 Activity (M4 muscarinic receptor; [2]): ++ (activity was measured to be between 0.1 μM and 4.0 μM)

CN(C)C(=O)N1CC2(CCN(C3CCN(c4nccs4)CC3)CC2)c2ccccc21 [compound 504]
Emax (M1 muscarinic receptor; compound nos. 455-509): 25 to 100% | M1 Activity (M1 muscarinic receptor; compounds 455-509): + (activity was measured to be greater than or equal to 5.0 μM) | Emax (M4 muscarinic receptor; compound nos. 455-509): 25 to 100% | M4 Activity (M4 muscarinic receptor; compounds 455-509): ++ (activity was measured to be between 2.0 μM and 5.0 μM)

Clc1ccc2c(c1)C1(CCO2)CCN([C@@H]2C[C@@H]3CC[C@@H]2C3)CC1 [compound 369]
Emax (M1 muscarinic receptor; compound nos. 1-454): > 85% | M1 Activity (M1 muscarinic receptor; [1]): +++ (activity was measured to be less than or equal to 0.7 μM) | Emax (M4 muscarinic receptor; compound nos. 1-454): > 70% | M4 Activity (M4 muscarinic receptor; [2]): ++ (activity was measured to be between 0.1 μM and 4.0 μM)

COCCOC(=O)N1CC2(CCN(C3CC4CCC(C3)N4C(=O)O[C@H]3CCOC3)CC2)c2cc(F)ccc21 (stereo partly drawn) [compound 80]
Emax (M1 muscarinic receptor; compound nos. 1-454): < 65% | M1 Activity (M1 muscarinic receptor; [1]): ++ (activity was measured to be between 0.7 μM and 3.0 μM) | Emax (M4 muscarinic receptor; compound nos. 1-454): < 55% | M4 Activity (M4 muscarinic receptor; [2]): ++ (activity was measured to be between 0.1 μM and 4.0 μM)

CCCC(=O)N1CC2(CCN(C3CCN(C(=O)OCC)CC3)CC2)c2cc(F)ccc21 [compound 324]
Emax (M1 muscarinic receptor; compound nos. 1-454): 65 to 85% | M1 Activity (M1 muscarinic receptor; [1]): ++ (activity was measured to be between 0.7 μM and 3.0 μM) | Emax (M4 muscarinic receptor; compound nos. 1-454): 55 to 70% | M4 Activity (M4 muscarinic receptor; [2]): + (activity was measured to be greater than or equal to 4.0 μM)

CCOC(=O)N1C2CCC1CC(N1CCC3(CC1)C[C@H](NC(C)=O)c1ccccc13)C2 (stereo partly drawn) [compound 359]
Emax (M1 muscarinic receptor; compound nos. 1-454): < 65% | M1 Activity (M1 muscarinic receptor; [1]): ++ (activity was measured to be between 0.7 μM and 3.0 μM) | Emax (M4 muscarinic receptor; compound nos. 1-454): < 55% | M4 Activity (M4 muscarinic receptor; [2]): ++ (activity was measured to be between 0.1 μM and 4.0 μM)

CCOC(=O)N1C2CCC1CC(N1CCC3(CC1)CN(C(=O)OC1CCC1)c1ccc(F)cc13)C2 (stereo not drawn) [compound 409]
M1 Activity (M1 muscarinic receptor; compound nos. 1-454): +++ (activity was measured to be less than or equal to 0.7 μM) | Emax (M1 muscarinic receptor; compound nos. 1-454): > 85% | M4 Activity (M4 muscarinic receptor; compound nos. 1-454): +++ (activity was measured to be less than or equal to 0.1 μM) | Emax (M4 muscarinic receptor; compound nos. 1-454): > 70%

CCOC(=O)N1CCC(N2CCC3(CC2)CN(C(=O)c2cc(C)oc2C)c2ccc(F)cc23)CC1 [compound 335]
Emax (M1 muscarinic receptor; compound nos. 1-454): < 65% | M1 Activity (M1 muscarinic receptor; [1]): + (activity was measured to be greater than or equal to 3.0 μM) | Emax (M4 muscarinic receptor; compound nos. 1-454): < 55% | M4 Activity (M4 muscarinic receptor; [2]): + (activity was measured to be greater than or equal to 4.0 μM)

C#CCCOC(=O)N1CCC(N2CCC3(CC2)CN(C(C)=O)c2ccc(F)cc23)CC1 [compound 62]
Emax (M1 muscarinic receptor; compound nos. 1-454): < 65% | M1 Activity (M1 muscarinic receptor; [1]): +++ (activity was measured to be less than or equal to 0.7 μM) | Emax (M4 muscarinic receptor; compound nos. 1-454): 55 to 70% | M4 Activity (M4 muscarinic receptor; [2]): ++ (activity was measured to be between 0.1 μM and 4.0 μM)

CN(C)C(=O)N1CC2(CCN(C3CC4CCC(C3)N4C(=O)OCCF)CC2)c2cc(F)ccc21 (stereo not drawn) [compound 32]
Emax (M1 muscarinic receptor; compound nos. 1-454): > 85% | M1 Activity (M1 muscarinic receptor; [1]): +++ (activity was measured to be less than or equal to 0.7 μM) | Emax (M4 muscarinic receptor; compound nos. 1-454): 55 to 70% | M4 Activity (M4 muscarinic receptor; [2]): +++ (activity was measured to be less than or equal to 0.1 μM)
